From article PMC12491243, “Rational design of indoleamine 2,3-dioxygenase 1 (IDO1) inhibitors featuring 1,2,3-triazole derivatives with enhanced anti-inflammatory and analgesic efficacy” (Frontiers in Pharmacology, 2025)

How the values were obtained:
Type in all cases: in vivo
[1] = test system: CFA-induced inflammatory pain model; experiment: CFA-induced spontaneous pain, flinching and guarding behaviors; settings: CFA mice, 30 mg/kg i.p. repeated, 72 h post-CFA
Procedure: To evaluate the analgesic effects of Compound 14e in vivo, we established an inflammatory pain model using intraplantar injection of CFA. Compound 14e (30 mg/kg) was administered intraperitoneally at 6 h, with subsequent doses at 48 and 72 h after CFA injection. Behavioral assessments, including von Frey testing for mechanical allodynia and heat stimuli for thermal hyperalgesia, were conducted on the injected hind paw at baseline (BL), as well as at 6, 12, 18, 24, 48 and 72 h post-CFA injection. Additionally, flinching and guarding behaviors, indicators of spontaneous pain, were evaluated 72 h after CFA injection. […] (A,B) Evaluation of CFA-induced mechanical allodynia as assessed by withdrawal frequency to 0.07 g (A) and 0.4 g (B) von Frey filaments in mice repetitive treated with 10% DMSO or compound 14e. (C) Assessment of CFA-induced thermal hyperalgesia in the latency in mice treated with 10% DMSO or compound 14e. […] The dosage of compound 14e was determined based on our preliminary experiments. Spontaneous nociceptive behavior was recorded in previous studies ([Liu et al., 2023]; [Yang et al., 2018]) Mice were placed in the Plexiglas chamber and allowed to habituate for 30 min. Following acclimatization, the number of flinches and the time spent on guarding behaviors were analyzed for 10 min. […]

TNF-α = experiment: ELISA of TNF-α in inflamed paw, spinal cord and serum of CFA mice; settings: ipsilateral L4–L6 spinal cord and serum, 72 h after CFA
Excerpt: To determine whether the analgesic effects of Compound 14e are associated with reduced local and systemic inflammation, we measured the levels of inflammatory factors in the inflamed paw tissue, ipsilateral L4–L6 spinal cord, and peripheral blood. The results indicated a significant increase in the protein levels of TNF-α and IL-1β in the inflamed paw, spinal cord, and serum of mice in the CFA group compared to the vehicle group.
FIGURE 6 Compound 14e reduces TNF-α and IL-1β in the inflamed hindpaw skin, spinal cord and peripheral blood 72 h after CFA-induced inflammation. (A,D) Expression levels of TNF-α and IL-1β in the inflamed skin tissue. (B,E) Expression levels of TNF-α and IL-1β in ipsilateral L4–6 spinal cord. […]
Under anesthesia with 1% pentobarbital sodium, serum was obtained from the mice orbits, after coagulation at room temperature for 2 h, the sample was then centrifuged at 1,000 × g for 20 min at 4 °C, with the supernatant collected. […] The protein concentrations were determined using a bicinchoninic acid (BCA) kit (Pierce Biotechnology Inc.). The following inflammatory factors were measured using Mouse TNF-α ELISA kit (EM0183) and IL-1β ELISA kit (EM0109) obtained from Wuhan Fine Biotechnology Company, according to the product protocols. The O.D. absorbance at 450 nm was quantified in a ultramicroplate spectrophotometer (BioTek Epoch).

[2] = test system: CFA-induced inflammatory pain model; experiment: CFA-induced mechanical allodynia, von Frey paw withdrawal frequency; settings: CFA mice, 30 mg/kg i.p., 0.07 g and 0.4 g von Frey filaments, ipsilateral side, 12 to 72 h post-CFA
Procedure: To evaluate the analgesic effects of Compound 14e in vivo, we established an inflammatory pain model using intraplantar injection of CFA. Compound 14e (30 mg/kg) was administered intraperitoneally at 6 h, with subsequent doses at 48 and 72 h after CFA injection. Behavioral assessments, including von Frey testing for mechanical allodynia and heat stimuli for thermal hyperalgesia, were conducted on the injected hind paw at baseline (BL), as well as at 6, 12, 18, 24, 48 and 72 h post-CFA injection. Additionally, flinching and guarding behaviors, indicators of spontaneous pain, were evaluated 72 h after CFA injection. […] (A,B) Evaluation of CFA-induced mechanical allodynia as assessed by withdrawal frequency to 0.07 g (A) and 0.4 g (B) von Frey filaments in mice repetitive treated with 10% DMSO or compound 14e. […] The dosage of compound 14e was determined based on our preliminary experiments. Mechanical hypersensitivity was assessed by measuring paw withdrawal frequency (PWF) as described previously in our reports ([Ma et al., 2021]; [Pan et al., 2021]). The PWF in response to mechanical stimulus was determined using two calibrated von Frey filaments (0.07 and 0.4 g, North Coast Medical Inc., Gilroy, United States). […] The PWF was calculated based on the number of positive responses from the 10 applications ([number of paw withdrawals/10 trials] × 100 = % response frequency).

With O=C1COc2ccc(NC(=O)c3cccc(-c4cn(Cc5c(F)cccc5Cl)nn4)c3)cc2N1 [Compound 14e] the “spontaneous pain behaviors (flinching and guarding)” value [1] was “significantly reduced”, the “CFA-induced levels of TNF-α” value (TNF-α) was “significantly decreased” and the “mechanical allodynia, paw withdrawal frequency (PWF)” value [2] was “significantly alleviated”.
